As usually defined, the melting point is the temperature of the solid-liquid transition.

`COc1cc(Nc2nc(N3CCOCC3)nc(-n3c(C(F)F)nc4c(OC)cccc43)n2)ncn1` registered a melting point of 256 to 259 °C.
As to `O=C1c2ccc(Nc3ccccc3)nc2CC2CCCCC12` (stereo not drawn), the melting point was in the range of 214 to 216 °C.
Turning to `Cc1ccc(OCC(=O)c2cc(C(C)(C)C)c(O)c(C(C)(C)C)c2)c(-n2nc3ccccc3n2)c1`, the melting point fell in the range of 155 to 157 °C.
As for `FC(F)(F)c1cc(Cl)c(-n2cc(I)c(C(F)(F)F)n2)c(Cl)c1`, the melting point lay within 109 to 112 °C.
The compound `CCCc1nc(CSc2ccc(CCC(=O)O)cc2)c(C(=O)O)n1Cc1cc2c(cc1Cl)OCO2` displayed a melting point of 171 °C.
In the case of `CCC(CC)c1nnc(NC)n(N)c1=O`, the melting point was in the range of 119 to 120 °C.
For the compound `Cc1oc(C=Cc2ccccc2Cl)nc1CC(=O)O`, the melting point was in the range of 148 to 149 °C.
Under `CCOC(=O)C(=CNc1cc(C)nn1-c1ccccc1)C(=O)OCC` stands 70 to 72 °C; under `CC(=O)Nc1c(C#N)cnn1-c1c(Cl)cc(Cl)c(Cl)c1Cl`, 115 °C; under `COC(=O)Cc1n[nH]c2ccccc12`, 146 °C.
As for `CC(C)(C)OC(=O)C1CCCC(c2ccccc2)N1` (stereo not drawn), the melting point is 68 °C.
The compound `Cc1ccc(C(=O)NC(NC(=NC#N)Nc2ccccc2F)C(Cl)(Cl)Cl)cc1` (stereo not drawn) gave a melting point of 220 to 222 °C.
Under `CC(C)Oc1cc(Oc2ccc(S(C)(=O)=O)cn2)cc2cc(C3=NCC(CC(C)(C)O)S3)[nH]c12` (stereo not drawn) stands 151 to 153 °C; under `NC(=O)c1nc(CCl)n(-c2ccc(Cl)cc2C(=O)c2ccccc2)n1`, 128 to 130 °C; under `CN(C(=O)OC(C)(C)C)c1sc(-c2cccnc2)nc1Br`, 88 to 91 °C.
`COC(=O)C1Oc2ccc(Cl)cc2C(Cc2ccccc2)(c2ccccc2)O1` (stereo not drawn) showed a melting point of 110 °C.
Regarding `CC=CC1Nc2ccccc2-c2c([N+](=O)[O-])cnn21` (stereo not drawn), the melting point lay within 115 to 117 °C.
Consider `COc1cc2cc(C#N)c(N)cc2cc1OCc1ccccc1`, for which the melting point was 241 to 243 °C.
`COC(=O)c1ccc(NC(=O)c2cc(C(C)C)c(C(C)C)s2)cc1O` registered a melting point of 180 to 181 °C.
In turn, `CSC(SC)=C(C#N)C(=O)NC1CCCCC1` yielded a melting point of 103 to 105 °C.
`COC(=O)C1Cc2sc3c(c2C1)C(c1ccccc1Cl)=NCC(N(C)C1(C)OCCO1)=N3` (stereo not drawn) showed a melting point of 166 to 168 °C.
Compound `Cc1cccc2sc(NN)nc12` yielded a melting point of 161 to 166 °C.
In turn, `CCS(=O)(=O)N(Cc1cccnc1)c1ccc(Cl)cc1` registered a melting point of 104 to 106 °C.
The compound `CCOC(=O)C1=CC(c2cccc(C(F)(F)F)c2)=NN(C(=O)OCC)C1N1CCOCC1` (stereo not drawn) gave a melting point of 128 to 129 °C.
With `N#CC(C#N)C(=O)c1ccc2ccccc2c1`, the melting point was 121 °C.
The figure for `O=C(CCc1ccccc1)Nc1ccc(Br)cc1` is 149 to 151 °C; for `CCOC(=O)c1cnc(Nc2ccccc2F)[nH]c1=O` it is 250 to 252 °C.
`COc1ccc(-c2cc(CN3CCN(C)CC3)c(=O)n(Cc3ccc(Cl)cc3)n2)cc1F` showed a melting point of 129 to 130 °C.
The figure for `CC(O)Cn1c(CO)nc(C(C)C)c1Sc1cc(Cl)cc(Cl)c1` (stereo not drawn) is 159 to 161 °C; for `O=C1Nc2ccccc2OCC1(Cl)Cl` it is 170 to 174 °C.
With `O=C(O)c1cc(C(F)(F)F)c(F)c(F)c1F`, the melting point fell in the range of 82 to 84 °C.
`CCOC(=O)c1cc(C#N)c(C)nc1N1CCCCC1` displayed a melting point of 72 to 74 °C.
Under `Clc1ccc(-c2ncsc2Cn2cncn2)c(Cl)c1` stands 120 to 123 °C.
Consider `COC(=O)C1CC(=NO)c2c(Cl)cc(Cl)cc2N1` (stereo not drawn), for which the melting point lay in the range of 216 to 217 °C.
Regarding `COc1ccc(C(=O)N2CC3CC2C(=O)O3)cc1OC` (stereo not drawn), the melting point was determined as 132 °C.
In the case of `Cc1oc(-c2ccccc2)nc1CCOc1ccc(CCC(=O)O)cc1`, the melting point was in the range of 142 to 144 °C.
For `Nc1nc(-c2cccc3ccccc23)co1`, the melting point was in the range of 155 to 162 °C.
In the case of `O=C(O)c1ccc(CCOCCCCCCBr)cc1`, the melting point was 85 to 87.5 °C.
The figure for `OC1(c2ccc3[nH]cc(CCN4CCCC4)c3c2)CCCCC1` is 66 to 78 °C; for `CC(C)c1cccc2[nH]c(C(=O)O)cc(=O)c12` it is above 250 °C.
For the compound `O=S(=O)(c1ccc(Oc2cncc(Br)c2)cc1)N1CCCC1`, the melting point stood at 148 °C.
In turn, `COc1cc(OC)c2c(=O)[nH]c(-c3cc(C)c(OCCN(C)C)c(C)c3)cc2c1` came in with a melting point of 261 to 263 °C.
In turn, `CN(C)CCCOc1ccccc1CC(=O)O` gave a melting point of 98 °C.
Compound `O=C(CCCC(=O)N1CCC[C@H]1C(=O)O)c1ccccc1` gave a melting point of 102 to 105 °C.
In turn, `Cc1cc(C=CC#N)c(Cl)cc1F` returned a melting point of 90 to 91 °C.
Under `CCCOc1ccccc1-c1nc2nc(NC)ncc2c(=O)[nH]1` stands 235 to 236 °C; under `CCNC(=S)NC1CC(C)(C)NC(C)(C)C1`, 134 °C; under `C#CC1C2=C(C(=O)CCC2)c2ccc(OC(=O)C(C)(C)C)cc2N1C(=O)Oc1ccccc1` (stereo not drawn), 140 to 142 °C.
The figure for `CCOc1ccc(-c2ccc3c(c2)C=C(C(=O)Nc2ccc(CO)cc2)CCO3)cc1` is 208 to 210 °C; for `CSc1ncc(C2=NCC(C)(C)O2)cc1Cl` it is 113 to 115 °C; for `C[C@@H](c1ccc(-c2ccn(CC(F)(F)F)c(=O)c2)cc1)N1CC[C@](CC(C)(C)O)(c2ccccc2)OC1=O` it is 144 to 146 °C.
Consider `Nc1ccc(CCOC(=O)Nc2ccc(Nc3ccccc3)cc2)cc1`, for which the melting point came out at 140 °C.
The compound `COc1cc(Nc2c(C#N)cnc3cc(-c4ccc(CN5CCCCC5)s4)ccc23)c(Cl)cc1Cl` registered a melting point of 155 to 160 °C.
Take `Cc1ccc(Oc2ccccc2C(=N)NO)c(O)c1`: the melting point fell in the range of 85 to 87 °C.
Under `Nc1ccc(S(=O)(=O)c2cc(N)nc(Br)c2)cc1` stands 204 to 205 °C.
Compound `CCOCc1nc2c(N)nc3cc(OCC(=O)N4CCOCC4)ccc3c2n1CC(C)(C)O` had a melting point of 209 to 211 °C.
Compound `Clc1ccc(C#Cc2ccc(-c3ccccc3)s2)cc1` came in with a melting point of 141 to 145 °C.
The figure for `COc1ccc2c(c1)CC(C(=O)O)N2C(C)=O` (stereo not drawn) is 164 to 167 °C; for `CCCC=Cc1c(C(C)C)nc(C(C)C)c(CO)c1-c1ccccc1C` it is 76 to 79 °C.
For the compound `CCC(=O)N1CCN(c2n[nH]c3ncnc(Nc4cccc(Cl)c4)c23)CC1`, the melting point lay within 247 to 250 °C.
`Cc1cn(C2CC(O)C(COC(=O)Oc3ccc([N+](=O)[O-])cc3)O2)c(=O)[nH]c1=O` (stereo not drawn) displayed a melting point of 145 to 146 °C.
The figure for `Cc1c(-c2ccccc2)sc(N2C(=O)c3ccccc3C2=O)c1C(=O)c1ccc(Cl)cc1` is 223 to 225 °C; for `Cc1ccc(-c2ncc(-c3cccs3)s2)cc1` it is 85.5 to 86.5 °C; for `CCCc1nc2c(N)nc(C)c(C)c2n1CCCCCCS(C)(=O)=O` it is 157 to 158 °C.
On to `COc1ccc(C(=O)CCC(=O)c2ccc3ccccc3c2)cc1OC`, for which the melting point was found to be 133 °C.
`CC(C)(C)OC(=O)N1CC(c2n[nH]c(-c3ccccn3)n2)C1` came in with a melting point of 220 °C.
Turning to `Nc1ccc(C(=O)N2CCCCc3sccc32)cc1`, the melting point was 168 to 172 °C.
Consider `CN(Cc1cccc2c1C(=O)N(C1CCC(=O)NC1=O)C2=O)C(=O)NC(C)(C)C` (stereo not drawn), for which the melting point is 188 to 190 °C.
Compound `COCCCCCCCCCCCCCCSCCC(=O)OC` showed a melting point of 31 to 32 °C.
Regarding `CCOCc1nc2c(N)nc3cccnc3c2n1Cc1cc(-c2ccc(F)cc2)no1`, the melting point was 190 to 191 °C.
Compound `CCCCCC(=O)C=CI` came in with a melting point of 35 to 37 °C.
The figure for `CCCN(CCC)C(Cc1cccc2[nH]cnc12)C(=O)OCC` (stereo not drawn) is 78 to 80 °C; for `NC(=O)CCCCC1(c2ccccc2)CC(O)=CC(=O)O1` (stereo not drawn) it is 173 to 174 °C.
Under `CC(C)[C@@H]1N(C(=O)OCc2ccccc2)CO[C@]1(O)C(F)(F)F` stands 73 to 74 °C.
On to `O=C(O)c1ccc(-c2ccc(NS(=O)(=O)C(F)(F)F)cc2)[nH]c1=O`, for which the melting point is above 260 °C.
In turn, `CCC(C)(Oc1ccc(OCc2cc(-c3ccc(OCc4ccccc4)cc3)no2)cc1)C(=O)O` (stereo not drawn) registered a melting point of 132 to 134 °C.
Consider `NC(=NO)c1ccc(O)c(O)c1`, for which the melting point was found to be 193 °C.
Under `Clc1cn2cc(Br)ccc2n1` stands 155 to 159 °C.
`O=C(O)Cc1cc(Cl)c(O)cc1F`: the melting point is 137 to 138 °C.
The figure for `COCc1ccoc1-c1cccc(-n2c(N)nc3ccccc32)c1` is 134 to 136 °C; for `O=c1c(CCCCBr)c(O)c2cccnc2n1-c1ccccc1` it is 169 to 171 °C; for `COc1ccc2c(cc3n2CCCO3)n1` it is 92 to 93 °C.
`CN1CCN(c2ccc(Nc3nc(N)c(C(=O)c4c(Cl)cc(Br)c(N)c4Cl)s3)cc2)CC1` had a melting point of 180 to 182 °C.
For `O=S(=O)(c1cc(Cl)[nH]c1-c1ccc(Cl)cc1)C(F)(F)F`, the melting point fell in the range of 109 to 112 °C.
`O=c1[nH]ncc2cc(CCc3ccccc3)ccc12` returned a melting point of 190 to 193 °C.
The compound `Cn1nc(N)c2sc3c(Cl)cccc3c21` registered a melting point of 239 to 241 °C.
As for `COc1ccc(N(c2ccc(OC)cc2)c2ccc(-c3ccc(N(c4ccc(OC)cc4)c4ccc5ccc6cccc7ccc4c5c67)cc3)cc2)cc1`, the melting point lay within 211 to 213 °C.
As to `COc1ccc(N2CCN(CCCCc3ccc(C4CCC(=O)N4)cc3)CC2)cc1` (stereo not drawn), the melting point was in the range of 155 to 156 °C.
With `COc1nc(OC)nc(N(C)C(=O)Oc2ccccc2)n1`, the melting point came out at 90 °C.
The figure for `NC(=O)N1CCN2c3ccccc3Cn3cccc3C2C1` (stereo not drawn) is 175 to 177 °C; for `CCOC(=O)c1c(Cn2ccnc2CC)nc2cc(OC)c(OC)cc2c1-c1ccc(OC)c(OC)c1` it is 163 to 164 °C; for `COC1OCC[C@@H]1NC(=O)[C@H](CC(C)C)NC(=O)Nc1cccc2ccccc12` (stereo partly drawn) it is 184 to 185 °C.
Consider `COc1ccc2c(c1)-c1nn(CCO)c3cccc(c13)N2`, for which the melting point was in the range of 275 to 276 °C.

These data come from a melting point compilation (Tetko et al.; mined from patent text by program, amines drawn as free bases though some values may be those of a salt).
